{"source": "patent US9309212B2", "about": "“Compositions and methods for modulating the activity of Epstein-Barr nuclear antigen 1” (The Wistar Institute, priority 2011, dated 2016)", "key": {"EBNA1": {"target": "T1, EBNA1 (Epstein-Barr virus, UniProt P03211)", "T1 construct": "expressed in transfected cells; host or cells: 293T cells", "T1 sequence (P03211 whole entry)": "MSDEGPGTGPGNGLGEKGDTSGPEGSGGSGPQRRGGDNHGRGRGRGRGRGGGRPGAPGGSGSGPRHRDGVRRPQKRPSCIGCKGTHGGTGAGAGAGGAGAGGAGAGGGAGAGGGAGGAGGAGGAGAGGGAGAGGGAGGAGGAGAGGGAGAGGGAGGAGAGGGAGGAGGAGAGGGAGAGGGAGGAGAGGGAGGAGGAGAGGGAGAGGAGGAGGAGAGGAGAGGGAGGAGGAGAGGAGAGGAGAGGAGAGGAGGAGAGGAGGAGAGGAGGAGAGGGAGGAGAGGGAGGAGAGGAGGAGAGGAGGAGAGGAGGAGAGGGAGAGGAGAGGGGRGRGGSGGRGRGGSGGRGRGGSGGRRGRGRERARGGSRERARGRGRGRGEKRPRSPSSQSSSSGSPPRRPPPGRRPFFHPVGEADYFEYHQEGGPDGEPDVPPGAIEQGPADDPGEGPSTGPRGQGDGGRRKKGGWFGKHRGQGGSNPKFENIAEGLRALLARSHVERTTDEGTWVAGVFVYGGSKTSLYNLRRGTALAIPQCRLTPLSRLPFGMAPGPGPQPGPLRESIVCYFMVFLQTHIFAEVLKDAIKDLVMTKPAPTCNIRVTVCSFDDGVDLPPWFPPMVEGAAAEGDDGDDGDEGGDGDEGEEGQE", "test": "cell-based assay (EBNA1 transcription derepression assay, Qp-luciferase reporter in 293T cells)", "settings": "final concentration range 125 μM-2 nM, 125000 nM = not active", "procedure": "EBNA1 Transcription Derepression Assay.\n293T cells were seeded in 10-cm plates in DMEM media with 10% FBS. Following a 18-hour incubation at 37° C. to allow cells to adhere, cells at 50-70% confluence were transfected using 40 μL LIPOFECTAMINE (INVITROGEN) per plate. The cells were transfected with a 4 μg Qp-luciferase reporter plasmid (N1852) and 0.125 μg EBNA1 expression plasmid (N803) or 4 μg Qp-luciferase reporter plasmid (N1852) and 0.125 μg control plasmid (N799) (no EBNA) per plate. After 24 hours, the cells were harvested without trypsin, centrifuged 1200 RPM for 5 minutes and resuspended in DMEM media with 10% FBS at a concentration 100,000 cells per milliliter. Forty μL of this solution […] was dispensed to each well of the white plate using a BIOTEK MICROFLO Select Dispenser. Test compounds were added to achieve a final concentration range of 125 μM-2 nM, as described above. Cells were incubated at 37° C. for 48 hours, harvested and analyzed for luciferase activity using the PROMEGA STEADY-GLO luciferase system and read using a PERKIN ELMER 2104 Multilabel Reader.\nCompounds were screened for activity in the cell-based assay disclosed herein."}, "EBNA1 DNA binding domain": {"target": "EBNA1 DNA binding domain (Human herpesvirus 4, UniProt P03211 SEQ:454-607)", "sequence (P03211 454-607)": "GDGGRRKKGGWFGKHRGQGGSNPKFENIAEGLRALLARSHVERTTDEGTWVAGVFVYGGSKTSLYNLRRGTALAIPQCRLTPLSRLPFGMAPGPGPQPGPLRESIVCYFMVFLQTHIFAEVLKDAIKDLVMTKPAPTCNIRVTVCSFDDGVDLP", "test": "FP; 200 mM NaCl, 20 mM Tris-Cl pH 7.4, 1 mM DTT, 10 ug/mL BSA, 25 C; 5 nM probe; probe performed significantly better in FP than in EMSA comparison", "settings": "tags: hexa-histidine, E. coli expressed; chain copies: 2; label: CY5 (opl 3016) or FITC (opl 4624); hairpin"}}}
{"molecule": "O=C(Nc1ccc(F)c(F)c1)c1ccc2occc2c1", "note": "[VKE01471]", "values": [{"measurement": "IC50", "setting": "EBNA1", "value": 0.847, "unit": "µM"}]}
{"molecule": "Cc1cc(C)cc(CC(=O)Oc2ccc3occ([N+](=O)[O-])c3c2)c1", "note": "[VKE01452]", "values": [{"measurement": "IC50", "setting": "EBNA1", "value": "> 125", "unit": "µM"}]}
{"molecule": "O=C(Nc1ccc2occc2c1)c1ccncn1", "note": "[VKE01465]", "values": [{"measurement": "IC50", "setting": "EBNA1", "value": 1.66, "unit": "µM"}]}
{"molecule": "O=C(Oc1ccc2occ([N+](=O)[O-])c2c1)c1ccc(F)cc1Cl", "note": "[VKE01451]", "values": [{"measurement": "IC50", "setting": "EBNA1", "value": 3.28, "unit": "µM"}]}
{"molecule": "O=C(Nc1ccncc1)c1ccc2occc2c1", "note": "[VKE01473]", "values": [{"measurement": "IC50", "setting": "EBNA1", "value": 20.8, "unit": "µM"}]}
{"molecule": "O=C(Nc1ccc2occc2c1)c1ccc(N2CCOCC2)cc1", "note": "[VKE01462]", "values": [{"measurement": "IC50", "setting": "EBNA1", "value": 0.298, "unit": "µM"}]}
{"molecule": "O=C(Oc1ccc(Cl)cc1)c1ccc2occc2c1", "note": "[VKE01441]", "values": [{"measurement": "IC50", "setting": "EBNA1", "value": 9.06, "unit": "µM"}]}
{"molecule": "O=C(Nc1cccc(Cl)c1)c1ccc2occc2c1", "note": "[VKE01468]", "values": [{"measurement": "IC50", "setting": "EBNA1", "value": 0.813, "unit": "µM"}]}
{"molecule": "O=[N+]([O-])c1coc2ccc(OCc3ccc(OC(F)(F)F)cc3)cc12", "note": "[VKE01456]", "values": [{"measurement": "IC50", "setting": "EBNA1", "value": 14, "unit": "µM"}]}
{"molecule": "CCc1ccccc1C(=O)Nc1ccc2occc2c1", "note": "[VKE01461]", "values": [{"measurement": "IC50", "setting": "EBNA1", "value": 1.02, "unit": "µM"}]}
{"molecule": "O=C(Nc1ccccn1)c1ccc2occc2c1", "note": "[VKE01472]", "values": [{"measurement": "IC50", "setting": "EBNA1", "value": 0.152, "unit": "µM"}]}
{"molecule": "O=C(Oc1ccc2occ([N+](=O)[O-])c2c1)c1ccccc1C(F)(F)F", "note": "[VKE01449]", "values": [{"measurement": "IC50", "setting": "EBNA1", "value": "> 125", "unit": "µM"}]}
{"molecule": "O=C(Nc1ccc2occc2c1)c1ccccc1C(F)(F)F", "note": "[VKE01459]", "values": [{"measurement": "IC50", "setting": "EBNA1", "value": 6.52, "unit": "µM"}]}
{"molecule": "Cc1cc(NC(=O)c2ccc3occc3c2)ccc1Cl", "note": "[VKE01470]", "values": [{"measurement": "IC50", "setting": "EBNA1", "value": 0.042, "unit": "µM"}]}
{"molecule": "O=C(Oc1ccc2occ([N+](=O)[O-])c2c1)c1ncccc1C(F)(F)F", "note": "[VKE01446]", "values": [{"measurement": "IC50", "setting": "EBNA1", "value": "> 125", "unit": "µM"}]}
{"molecule": "O=C(Oc1ccc2occ([N+](=O)[O-])c2c1)c1ccno1", "note": "[VKE01447]", "values": [{"measurement": "IC50", "setting": "EBNA1", "value": "> 125", "unit": "µM"}]}
{"molecule": "O=C(Nc1ccc2occc2c1)c1ccc(C(F)(F)F)cc1", "note": "[VKE01458]", "values": [{"measurement": "IC50", "setting": "EBNA1", "value": 0.00476, "unit": "µM"}]}
{"molecule": "Cc1csc(NC(=O)c2ccc3occc3c2)n1", "note": "[VKE01474]", "values": [{"measurement": "IC50", "setting": "EBNA1", "value": 0.0602, "unit": "µM"}]}
{"molecule": "O=C(Cc1ccc(Cl)cc1Cl)Oc1ccc2occ([N+](=O)[O-])c2c1", "note": "[VKE01443]", "values": [{"measurement": "IC50", "setting": "EBNA1", "value": "> 125", "unit": "µM"}]}
{"molecule": "O=C(Nc1ccc2occc2c1)c1cccnc1", "note": "[VKE01463]", "values": [{"measurement": "IC50", "setting": "EBNA1", "value": 1.26, "unit": "µM"}]}
{"molecule": "O=C(Oc1ccc2occ([N+](=O)[O-])c2c1)c1cccnc1", "note": "[VKE01444]", "values": [{"measurement": "IC50", "setting": "EBNA1", "value": "> 125", "unit": "µM"}]}
{"molecule": "O=C(Oc1ccc2occ([N+](=O)[O-])c2c1)c1ccc(N2CCOCC2)cc1", "note": "[VKE01448]", "values": [{"measurement": "IC50", "setting": "EBNA1", "value": 30.6, "unit": "µM"}]}
{"molecule": "CCCCc1ccc(C(=O)Nc2ccc3occc3c2)cc1", "note": "[VKE01460]", "values": [{"measurement": "IC50", "setting": "EBNA1", "value": 0.0123, "unit": "µM"}]}
{"molecule": "CC(C)(C)c1ccc(OC(=O)c2ccc3occc3c2)cc1", "note": "[VKE01442]", "values": [{"measurement": "IC50", "setting": "EBNA1", "value": 2.63, "unit": "µM"}]}
{"molecule": "O=[N+]([O-])c1coc2ccc(OCc3ccc(Cl)cc3)cc12", "note": "[VKE01454]", "values": [{"measurement": "IC50", "setting": "EBNA1", "value": 9.78, "unit": "µM"}]}
{"molecule": "O=C(Nc1ccc2occc2c1)c1ccc(F)cc1Cl", "note": "[VKE01457]", "values": [{"measurement": "IC50", "setting": "EBNA1", "value": 0.0189, "unit": "µM"}]}
{"molecule": "O=C(Oc1ccc2occ([N+](=O)[O-])c2c1)c1ccncn1", "note": "[VKE01445]", "values": [{"measurement": "IC50", "setting": "EBNA1", "value": "> 125", "unit": "µM"}]}
{"molecule": "CC(C)(C)c1ccc(NC(=O)c2ccc3occc3c2)cc1", "note": "[VKE01469]", "values": [{"measurement": "IC50", "setting": "EBNA1", "value": 0.0627, "unit": "µM"}]}
{"molecule": "O=C(Nc1ccc2occc2c1)c1ncccc1C(F)(F)F", "note": "[VKE01464]", "values": [{"measurement": "IC50", "setting": "EBNA1", "value": 1.09, "unit": "µM"}]}
{"molecule": "O=C(Nc1ccc2occc2c1)c1ccno1", "note": "[VKE01466]", "values": [{"measurement": "IC50", "setting": "EBNA1", "value": 83.8, "unit": "µM"}]}
{"molecule": "O=C(Nc1ccccc1F)c1ccc2occc2c1", "note": "[VKE01467]", "values": [{"measurement": "IC50", "setting": "EBNA1", "value": 0.674, "unit": "µM"}]}
{"molecule": "CCc1ccccc1C(=O)Oc1ccc2occ([N+](=O)[O-])c2c1", "note": "[VKE01450]", "values": [{"measurement": "IC50", "setting": "EBNA1", "value": 9.02, "unit": "µM"}]}
{"molecule": "CCCCc1ccc(C(=O)Oc2ccc3occ([N+](=O)[O-])c3c2)cc1", "note": "[VKE01453]", "values": [{"measurement": "IC50", "setting": "EBNA1", "value": 1.24, "unit": "µM"}]}
{"molecule": "O=[N+]([O-])c1coc2ccc(OCc3ccccc3)cc12", "note": "[VKE01455]", "values": [{"measurement": "IC50", "setting": "EBNA1", "value": 27.2, "unit": "µM"}]}
{"molecule": "GGGTAGCATATGCTATCTAGATAGCATATGCTACCC (structured_DNA)", "note": "[EBNA1 BS Hairpin (opl 3016 / opl 4624)]", "values": [{"measurement": "binding result", "setting": "EBNA1 DNA binding domain", "value": "binds"}]}
